Assay results from US20100261642A1, “NUTRITIONAL FORMULATION WITH HIGH ENERGY CONTENT” (N.V. NUTRICIA, priority 2007, published 2010).

System: intestinal epithelial cell lines T84
Assay: IL-4 mediated barrier disruption in T84 monolayers (flux and transepithelial resistance)
Assay type: cell-based, human
Conditions: for protective effect on IL-4 mediated barrier destruction (4 kD dextran flux), FIG. 1: 10 μM and 100 μM, time and dose dependent; for effect on IL-4 mediated barrier disruption (flux), in words: 100 μM, Table 1 summary, compared to control
Experimental: Monolayers (MC) of intestinal epithelial cell lines T84 (ATCC, USA) were cultured on transwell filters (Corning, Costar BV, The Netherlands) allowing both mucosal and serosal sampling and stimulation of human intestinal epithelial cells. Two weeks post confluency the monolayers were incubated in the presence of IL-4 (2 ng/ml, serosal compartment, Sigma, USA) with or without polyunsaturated fatty acids ARA, DHA, GLA, EPA, or control palmitic acid (10 μM or 100 μM, mucosal compartment, Sigma, St. Louis, USA). Cells were pre-incubated with ARA, DHA, EPA, or palmitic acid for 48 hr prior to the IL-4 incubation. The co-incubation of PUFA's and palmitic acid with IL-4 was continued for another 48 hr; while culture medium and additives were changed every 24 hr. The epithelial barrier function was determined by measuring the transepithelial resistance (TER) and permeability.

| Compound | protective effect on IL-4 mediated barrier destruction (4 kD dextran flux), FIG. 1 | effect on IL-4 mediated barrier disruption (flux), in words | IL-4 Flux (100 μM fatty acid, mucosal, IL-4 2 ng/ml, serosal, 48 hr pre-incubation + 48 hr co-incubation, permeability (4 kD dextran flux)) | IL-4 TER (100 μM fatty acid, mucosal, IL-4 2 ng/ml, serosal, 48 hr pre-incubation + 48 hr co-incubation, transepithelial resistance) |
| --- | --- | --- | --- | --- |
| CCCCC/C=C\C/C=C\C/C=C\C/C=C\CCCC(=O)O [ARA, arachidonic acid] | protect against IL-4 mediated barrier disruption | inhibit the increased flux caused by IL-4 |  |  |
| CC/C=C\C/C=C\C/C=C\C/C=C\C/C=C\C/C=C\CCC(=O)O [DHA, docosahexaenoic acid] |  |  | 271 | 547 |
| CCCCC/C=C\C/C=C\C/C=C\CCCCC(=O)O [GLA] | protect against IL-4 mediated barrier disruption |  |  |  |
| CCCCCCCCCCCCCCCC(=O)O [Palmitic acid, palmitic acid, reference compound] |  | detrimental effect |  |  |
